SMILES strings stand for the structures. Some results are limits rather than exact numbers.

We go through two compounds from US20050159345A1 (Boehringer Ingelheim International GmbH, priority 2002, published 2005).

Experiment [1] has as its target T1, HCV genotype 1b NS3-NS4A protease (UniProt P26662).
T1 construct: fused on or other part: 28 extra N-terminal residues with a hexahistidine tag and an rTEV cleavage site
The experiment is described as follows: Inhibition constant (Ki) determination and mode of inhibition, steady-state velocity, genotype 1b. In kind it is biochemical. The protocol: The fluorogenic depsipeptide substrate anthranilyl-D(d)EIVP-Nva[C(O)—O] AMY(3-N2)TW—OH (SEQ ID No.13) was used to assess the mechanism of inhibition and the inhibition constants of the compound (IV) against HCV NS3-NS4A proteases. It was cleaved between the norvaline and the alanine residues. The substrate working solution was prepared in DMSO at the concentration of 200 μM from the substrate stock solution (2 mM in DMSO stored at —20° C.). The final substrate concentration in the assay varied from 0.25 to 8 μM. The inhibition constant (Ki) for compound (IV) was determined using a steady-state velocity method (Morrisson et al. 1985). The protease activity was determined by monitoring the fluorescence change associated with the cleavage of the internally quenched fluorogenic substrate using a SLM-AMINCO® 8100 spectrofluorometer ([…]). The cleavage reaction was monitored in the presence of 0.25 to 8 μM of substrate, 0.3 nM of HCV 1a or 1b NS3-NS4A heterodimer protein and various concentrations of the test compound IV in 50 mM Tris-HCl, pH 8.0, 0.25M sodium citrate, 0.01% n-dodecyl-β-D-maltoside, 1 mM TCEP. The steady-state analysis of inhibition of the HCV genotype 1a and 1b NS3-NS4A heterodimer proteases were performed using the Dixon and Cornish-Bowden graphical methods. […]

The target in experiment [2] is T2, HCV genotype 2a-c NS3-NS4A protease (UniProt P26660).
T2 sequence (P26660 1031-1661): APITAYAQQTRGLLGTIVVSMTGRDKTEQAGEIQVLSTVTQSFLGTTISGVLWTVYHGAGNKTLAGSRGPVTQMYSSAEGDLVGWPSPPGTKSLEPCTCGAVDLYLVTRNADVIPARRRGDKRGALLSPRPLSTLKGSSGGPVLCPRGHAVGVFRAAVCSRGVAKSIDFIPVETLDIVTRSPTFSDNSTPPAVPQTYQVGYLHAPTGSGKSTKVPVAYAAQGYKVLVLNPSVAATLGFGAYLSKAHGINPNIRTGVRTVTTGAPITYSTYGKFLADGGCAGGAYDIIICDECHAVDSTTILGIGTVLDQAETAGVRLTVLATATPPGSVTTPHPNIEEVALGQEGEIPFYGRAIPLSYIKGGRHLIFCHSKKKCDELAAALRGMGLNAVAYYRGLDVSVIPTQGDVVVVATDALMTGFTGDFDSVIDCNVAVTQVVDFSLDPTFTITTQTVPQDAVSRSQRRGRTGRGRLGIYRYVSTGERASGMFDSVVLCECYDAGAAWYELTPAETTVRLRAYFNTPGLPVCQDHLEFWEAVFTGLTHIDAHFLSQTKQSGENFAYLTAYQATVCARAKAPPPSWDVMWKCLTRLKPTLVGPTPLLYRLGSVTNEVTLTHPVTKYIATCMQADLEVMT
The experiment is described as follows: Inhibition constant (Ki) determination, genotype 2a-c. In kind it is biochemical. The settings on record: read-out: Ki HCV genotype 2a-c.

Experiment [3] addresses T3, HCV genotype 2b NS3-NS4A protease (UniProt P26661).
T3 construct: fused on or other part: 28 extra N-terminal residues with a hexahistidine tag and an rTEV cleavage site
T3 sequence (P26661 1031-1661): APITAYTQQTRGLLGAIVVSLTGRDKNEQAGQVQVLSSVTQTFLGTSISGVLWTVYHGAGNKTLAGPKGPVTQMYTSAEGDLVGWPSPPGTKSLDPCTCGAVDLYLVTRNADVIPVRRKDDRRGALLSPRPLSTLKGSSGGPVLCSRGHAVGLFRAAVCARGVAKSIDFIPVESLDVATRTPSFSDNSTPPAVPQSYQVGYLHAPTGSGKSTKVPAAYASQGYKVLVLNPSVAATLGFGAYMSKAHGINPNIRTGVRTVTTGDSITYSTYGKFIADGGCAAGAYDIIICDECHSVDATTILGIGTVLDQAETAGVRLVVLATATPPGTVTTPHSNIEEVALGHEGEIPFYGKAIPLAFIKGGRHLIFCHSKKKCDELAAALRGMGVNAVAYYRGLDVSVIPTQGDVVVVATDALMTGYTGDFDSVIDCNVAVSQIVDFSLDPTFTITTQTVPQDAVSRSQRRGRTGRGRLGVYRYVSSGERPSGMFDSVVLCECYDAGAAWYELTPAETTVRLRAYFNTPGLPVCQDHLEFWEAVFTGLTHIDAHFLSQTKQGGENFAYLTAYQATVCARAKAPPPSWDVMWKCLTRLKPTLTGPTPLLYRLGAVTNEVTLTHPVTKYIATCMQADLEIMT
The experiment is described as follows: Inhibition constant (Ki) determination, genotype 2b. Format: biochemical. The settings on record: read-out: Ki HCV genotype 2b.

The subject of another experiment is GBV-B. The experiment is described as follows: Inhibition of GBV-B replication in tamarin hepatocytes in culture. In kind it is cell-based. On the procedure:
Hepatocytes isolated from uninfected tamarins were maintained in culture in defined medium for several days. The cell culture model was as described by Beames et al. 2000. Three days after plating, the cells were infected with GBV-B-containing plasma. After viral adsorption, the virus was removed and the cells were incubated in the presence and absence of candidate test compounds at a concentration of 10 μM. The cells were harvested 7 days post infection. The levels of GBV-B RNA were quantitated from total cellular RNA by a real-time PCR assay using a primer-probe combination that recognized a portion of the GBV-B capsid gene (Beames et al. 2000).

T1 sequence (P26662 1027-1657): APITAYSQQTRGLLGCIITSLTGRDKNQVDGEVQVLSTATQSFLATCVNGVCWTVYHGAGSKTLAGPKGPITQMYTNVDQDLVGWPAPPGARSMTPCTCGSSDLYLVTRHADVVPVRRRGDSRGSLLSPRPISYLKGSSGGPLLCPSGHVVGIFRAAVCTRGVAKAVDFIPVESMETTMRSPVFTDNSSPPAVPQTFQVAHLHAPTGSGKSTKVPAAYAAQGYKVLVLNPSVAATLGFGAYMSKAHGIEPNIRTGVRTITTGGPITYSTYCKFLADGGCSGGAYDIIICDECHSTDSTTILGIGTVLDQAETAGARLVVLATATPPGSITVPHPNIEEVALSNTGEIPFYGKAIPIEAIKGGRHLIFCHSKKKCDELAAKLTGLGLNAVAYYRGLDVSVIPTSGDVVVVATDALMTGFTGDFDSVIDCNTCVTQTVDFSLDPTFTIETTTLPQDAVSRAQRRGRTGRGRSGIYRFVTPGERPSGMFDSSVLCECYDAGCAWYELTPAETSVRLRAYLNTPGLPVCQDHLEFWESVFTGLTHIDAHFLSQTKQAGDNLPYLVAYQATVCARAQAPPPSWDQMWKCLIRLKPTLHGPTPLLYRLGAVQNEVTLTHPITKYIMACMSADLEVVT

Regarding `COc1ccc2c(O[C@@H]3C[C@H]4C(=O)N[C@]5(C(=O)O)CC5/C=C\CCCCC[C@H](NC(=O)OC5CCCC5)C(=O)N4C3)cc(-c3csc(NC(C)C)n3)nc2c1` (stereo partly drawn) [IV], the “mode of inhibition, HCV genotype 1b NS3-NS4A protease” value in experiment [1] (Dixon and Cornish-Bowden plots, GraFit) is listed as “competitive”. Further, the Ki (usually a measure of affinity in units of concentration, obtained from inhibition or displacement) in experiment [1] (read-out: Ki HCV genotype 1b NS3-NS4A protease, steady-state velocity analysis) was 0.66 nM; in experiment [2], 86 nM; in experiment [3], 83 nM.
For `COc1ccc2c(O[C@@H]3C[C@H]4C(=O)N[C@]5(C(=O)O)CC5/C=C\CCCCC[C@H](NC(=O)OC(C)(C)C)C(=O)N4C3)cc(-c3csc(NC(C)=O)n3)nc2c1` (stereo partly drawn) [III], the “inhibition of GBV-B replication (FIG. 7)” value with GBV-B was “dose-dependent inhibition”. The “reduction in the viral RNA levels” value with GBV-B (10 μM, 7 days post infection, g.e./μg RNA) is given as over 3 log.
